Results as given in ChEMBL document CHEMBL3217643, “Discovery of hydroxamate bioisosteres as KAT II inhibitors with improved oral bioavailability and pharmacokinetics” (Medchemcomm, 2013).

How the values were obtained:
[1] = Oral bioavailability in rat; format: ADME, organism-based; settings: in vivo
[2] = Oral bioavailability in dog; format: ADME, organism-based, Canis lupus familiaris; settings: in vivo
[3] = target: T1, Kynurenine/alpha-aminoadipate aminotransferase, mitochondrial (Homo sapiens, UniProt Q8N5Z0); assay: Inhibition of KAT2 (unknown origin)
[4] = target: T1, Kynurenine/alpha-aminoadipate aminotransferase, mitochondrial; assay: Ratio of Kinact to Ki for KAT2 (unknown origin)
Target sequence in this assay (Q8N5Z0 30-425 limits assumed): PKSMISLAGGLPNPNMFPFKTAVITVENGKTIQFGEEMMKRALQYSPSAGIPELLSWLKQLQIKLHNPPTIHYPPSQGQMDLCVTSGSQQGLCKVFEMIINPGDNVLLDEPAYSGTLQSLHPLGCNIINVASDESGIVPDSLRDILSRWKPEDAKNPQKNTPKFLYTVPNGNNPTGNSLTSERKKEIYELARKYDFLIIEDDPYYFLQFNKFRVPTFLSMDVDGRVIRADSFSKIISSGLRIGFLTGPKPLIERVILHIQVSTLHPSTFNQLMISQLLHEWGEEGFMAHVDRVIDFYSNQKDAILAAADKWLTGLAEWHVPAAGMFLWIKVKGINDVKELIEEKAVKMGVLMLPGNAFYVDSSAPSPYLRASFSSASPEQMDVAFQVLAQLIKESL

[5] = Blood clearance in iv dosed dog; format: ADME, organism-based, Canis lupus familiaris
P-gp = assay: Efflux ratio in MDCK cells overexpressing Pgp; format: ADME, cell-based, Canis lupus familiaris; settings: dog, MDCK-MDR1
[6] = Drug degradation assessed as metabolite formation by LC-MS/MS analysis; format: physicochemical
[7] = Blood clearance in iv dosed rat; format: ADME, organism-based
Brain = assay: Drug uptake in CD-1 mouse brain; format: ADME, tissue-based; settings: in vivo
[8] = Drug uptake in CD-1 mouse cerebral spinal fluid; format: ADME, Cerebrospinal fluid; settings: in vivo
[9] = Half life in human hepatocytes; format: ADME, cell-based, Hepatocyte
[10] = Half life in human liver microsomes; format: ADME

bioavailability [1] [%]	bioavailability [2] [%]	IC50 [3] [nM]	Ki [3] [nM]	Kinact [3] [min⁻¹]	Ratio [4] [M⁻¹ s⁻¹]	clearance [5] [mL/min/kg]	efflux ratio (P-gp)	Retention_time [6] [min]	clearance [7] [mL/min/kg]	Drug uptake (Brain)	Drug uptake [8]	half-life [9] [h]	half-life [10] [h]	SMILES
10.8	18.5	–	–	–	–	–	–	–	–	–	–	–	–	N[C@H]1Cc2ccccc2N(O)C1=O
–	–	201	81.5	0.0141	2920	–	–	–	–	–	–	–	–	COc1cccc(Oc2ccc3c(c2)CC(N)c2nncn2-3)c1 (stereo not given)
40	100	65	5.1	0.0155	5060	4.5	1.51	31.8	78.4	Active	Active	1.9	> 1.73	COc1cccc(Oc2ccc3c(c2)CC(N)c2n[nH]c(=O)n2-3)c1 (stereo not given)
